Consider three molecules from patent US12139477B2, “Compounds, salts thereof and methods for treatment of diseases” (ACADIA PHARMACEUTICALS INC., priority 2017, dated 2024).

For assay [1], the target named is 5HT2A (Homo sapiens, UniProt P28223). The assay is described as follows: Receptor Selection and Amplification (R-SAT) functional assay. It counts as cell-based. More on the design: expressed in transfected cells; host or cells: NIH3T3 cells, pSI mammalian expression vector. The note with it: NIH3T3 cells; Ki from IC50 by Cheng and Prussoff; read-out: 5-HT2a (pKi) (R-SAT) (converted). From the text: Receptor Selection and Amplification (R-SAT) Assays. […] The IC50 determined in the RSAT assay was converted into a Ki value using the method of Cheng and Prussoff, Biochem Pharmacol., 1973 Dec. 1; 22(23):3099-108. pKi is the negative of the log(Ki).

Assay [2] addresses T1, Nav1.5 sodium ion channel (alpha subunit) (Homo sapiens, UniProt Q14524).
T1 construct: host or cells: HEK293 cells
As to the kind of experiment: NaV1.5 whole cell recordings, HEK293 (AVIVA; for ACP-201, ACP-203 and ACP-204). In kind it is cell-based. The note with it: manual patch clamp; step to 0 mV; AVIVA method for ACP-201, ACP-203, ACP-204; read-out: NaV 1.5 IC50. The protocol: NaV1.5 methods (for ACP-201, ACP-203 and ACP-204): These experiments were carried out at AVIVA Biosciences Corporation, 6330 Nancy Ridge Drive, Suite 103, San Diego, CA 92121.
Cells: HEK293 cells transfected with Nav1.5 sodium ion channel (alpha subunit) were selected for this study. Cells were cultured in DMEM/F12 containing 10% FBS, 500 μg/mL G418 and 1% penicillin/streptomycin. Trypsin (0.05%) was utilized for cell harvesting.
External Solution: 90 mM NaCl; 50 mM TEA; 10 mM HEPES; 10 mM glucose; 4 mM KCl; 2 mM CaCl2); 305-315 mOsm; pH 7.4 (adjusted with 5M NaOH).
Internal Solution: 140 mM CsF; 10 mM NaCl; 1 mM MgCl2; 10 mM HEPES; 5 mM EGTA; 295-305 mOsm; pH 7.4 (adjusted with 1M NaOH).
Electrophysiology: All whole cell recordings were performed using PX 7000A (Axon Instruments) with AVIVA's […] technology. To achieve stable recordings, cells were voltage clamped at a holding potential 20 mV more negative than steady state half inactivation potential (Vh=V1/2−20 mV). V1/2 was determined by a pre-step from −130 mV to −40 MV for 1000 ms followed by a −10 mV step. V1/2 was determined independently for each cell to correct for both electrode potential and liquid junction potential offsets.
Test Article Handling and Dilutions: All test articles were prepared from 10 mM DMSO stock solutions. Solutions were mixed by sonication for 20 min, followed by vigorous vortexing. Prior to testing, compounds were diluted to test concentrations in glass vials using External Solution. Dilutions were prepared no longer than 20 min prior to use.
Electrophysiology Procedures: After achieving whole cell configuration, cells were monitored for 90 s to assess stability and then washed with External Solution for 66 s. for each cell achieving whole-cell access, an IV curve and steady state inactivation curve was measured. […] Whole cell parameters were monitored throughout the recoding procedure and corrected for any possible access resistance or input capacitance change (whole-cell compensation). […]

The target of assay [3] is hERG potassium channel (Homo sapiens, UniProt Q12809). As to the kind of experiment: hERG manual patch clamp, HEK293 cells (CR-CLE). The protocol: Each cell acted as its own control.
Temperature was measured using a thermistor probe in the recording chamber.
A general note: hERG is a cardiac potassium channel; its block is linked to QT prolongation.

A value given as a limit tells only on which side of the number the result lay.

5HT2A, sequence (P28223 whole entry): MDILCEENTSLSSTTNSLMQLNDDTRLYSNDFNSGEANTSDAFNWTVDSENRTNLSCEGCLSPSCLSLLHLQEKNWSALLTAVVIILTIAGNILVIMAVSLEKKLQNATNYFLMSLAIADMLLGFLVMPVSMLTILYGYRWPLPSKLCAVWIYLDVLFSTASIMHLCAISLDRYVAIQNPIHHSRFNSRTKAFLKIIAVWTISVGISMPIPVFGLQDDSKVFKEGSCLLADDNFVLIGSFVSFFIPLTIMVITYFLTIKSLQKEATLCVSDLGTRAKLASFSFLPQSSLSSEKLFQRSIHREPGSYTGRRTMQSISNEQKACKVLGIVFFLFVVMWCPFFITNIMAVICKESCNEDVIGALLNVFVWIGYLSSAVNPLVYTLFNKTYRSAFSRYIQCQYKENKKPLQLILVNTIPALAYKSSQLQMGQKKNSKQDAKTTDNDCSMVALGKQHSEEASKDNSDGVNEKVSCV
T1 sequence (Q14524 whole entry): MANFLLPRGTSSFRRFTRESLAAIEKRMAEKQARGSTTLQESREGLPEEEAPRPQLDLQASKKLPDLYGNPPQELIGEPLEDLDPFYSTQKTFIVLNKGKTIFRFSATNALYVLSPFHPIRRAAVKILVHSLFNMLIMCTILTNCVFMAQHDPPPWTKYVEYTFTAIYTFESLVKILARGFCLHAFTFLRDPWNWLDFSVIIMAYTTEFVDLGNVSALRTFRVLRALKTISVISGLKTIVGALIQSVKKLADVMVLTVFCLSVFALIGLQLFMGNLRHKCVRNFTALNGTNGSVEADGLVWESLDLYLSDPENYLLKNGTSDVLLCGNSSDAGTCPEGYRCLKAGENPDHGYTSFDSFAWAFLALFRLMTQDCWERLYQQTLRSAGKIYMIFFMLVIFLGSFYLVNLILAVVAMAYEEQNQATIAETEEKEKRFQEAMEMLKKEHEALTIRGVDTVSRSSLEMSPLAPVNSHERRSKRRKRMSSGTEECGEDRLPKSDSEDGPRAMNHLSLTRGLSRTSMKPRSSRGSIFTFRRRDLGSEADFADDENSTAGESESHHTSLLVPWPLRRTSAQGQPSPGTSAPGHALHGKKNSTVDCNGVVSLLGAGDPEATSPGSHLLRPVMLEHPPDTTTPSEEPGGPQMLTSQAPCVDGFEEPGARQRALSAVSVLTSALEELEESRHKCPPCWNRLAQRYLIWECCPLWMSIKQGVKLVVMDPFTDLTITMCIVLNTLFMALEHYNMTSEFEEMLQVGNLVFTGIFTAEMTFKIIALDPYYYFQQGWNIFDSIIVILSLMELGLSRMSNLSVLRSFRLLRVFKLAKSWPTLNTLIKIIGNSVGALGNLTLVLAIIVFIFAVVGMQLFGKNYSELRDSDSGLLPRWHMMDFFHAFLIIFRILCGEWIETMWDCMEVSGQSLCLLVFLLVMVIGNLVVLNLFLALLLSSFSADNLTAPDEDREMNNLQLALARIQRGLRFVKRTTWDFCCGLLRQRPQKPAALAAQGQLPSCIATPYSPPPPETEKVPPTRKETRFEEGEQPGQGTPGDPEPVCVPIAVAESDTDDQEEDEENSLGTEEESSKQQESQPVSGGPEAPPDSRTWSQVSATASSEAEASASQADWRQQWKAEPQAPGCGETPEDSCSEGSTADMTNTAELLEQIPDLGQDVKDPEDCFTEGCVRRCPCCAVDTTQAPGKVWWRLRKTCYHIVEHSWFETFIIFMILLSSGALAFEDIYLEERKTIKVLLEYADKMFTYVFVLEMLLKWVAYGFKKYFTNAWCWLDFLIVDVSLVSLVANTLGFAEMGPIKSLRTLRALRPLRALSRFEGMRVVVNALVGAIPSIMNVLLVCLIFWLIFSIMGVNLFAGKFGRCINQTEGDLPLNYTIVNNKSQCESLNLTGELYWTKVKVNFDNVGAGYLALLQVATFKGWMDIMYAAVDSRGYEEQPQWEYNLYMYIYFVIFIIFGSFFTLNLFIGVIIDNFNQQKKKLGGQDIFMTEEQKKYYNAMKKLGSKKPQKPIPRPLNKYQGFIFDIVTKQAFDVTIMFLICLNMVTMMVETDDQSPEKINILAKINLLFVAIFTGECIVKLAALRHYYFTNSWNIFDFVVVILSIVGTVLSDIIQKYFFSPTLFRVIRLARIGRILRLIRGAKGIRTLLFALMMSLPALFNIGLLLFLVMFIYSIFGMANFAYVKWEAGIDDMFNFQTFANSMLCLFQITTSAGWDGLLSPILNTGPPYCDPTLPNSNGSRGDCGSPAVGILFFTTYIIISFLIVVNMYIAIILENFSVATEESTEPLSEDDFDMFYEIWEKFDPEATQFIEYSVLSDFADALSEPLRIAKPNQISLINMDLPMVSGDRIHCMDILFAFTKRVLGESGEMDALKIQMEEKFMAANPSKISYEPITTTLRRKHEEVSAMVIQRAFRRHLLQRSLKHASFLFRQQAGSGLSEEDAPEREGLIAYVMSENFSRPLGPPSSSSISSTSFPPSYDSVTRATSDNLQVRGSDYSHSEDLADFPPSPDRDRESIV
hERG potassium channel, sequence (Q12809 whole entry): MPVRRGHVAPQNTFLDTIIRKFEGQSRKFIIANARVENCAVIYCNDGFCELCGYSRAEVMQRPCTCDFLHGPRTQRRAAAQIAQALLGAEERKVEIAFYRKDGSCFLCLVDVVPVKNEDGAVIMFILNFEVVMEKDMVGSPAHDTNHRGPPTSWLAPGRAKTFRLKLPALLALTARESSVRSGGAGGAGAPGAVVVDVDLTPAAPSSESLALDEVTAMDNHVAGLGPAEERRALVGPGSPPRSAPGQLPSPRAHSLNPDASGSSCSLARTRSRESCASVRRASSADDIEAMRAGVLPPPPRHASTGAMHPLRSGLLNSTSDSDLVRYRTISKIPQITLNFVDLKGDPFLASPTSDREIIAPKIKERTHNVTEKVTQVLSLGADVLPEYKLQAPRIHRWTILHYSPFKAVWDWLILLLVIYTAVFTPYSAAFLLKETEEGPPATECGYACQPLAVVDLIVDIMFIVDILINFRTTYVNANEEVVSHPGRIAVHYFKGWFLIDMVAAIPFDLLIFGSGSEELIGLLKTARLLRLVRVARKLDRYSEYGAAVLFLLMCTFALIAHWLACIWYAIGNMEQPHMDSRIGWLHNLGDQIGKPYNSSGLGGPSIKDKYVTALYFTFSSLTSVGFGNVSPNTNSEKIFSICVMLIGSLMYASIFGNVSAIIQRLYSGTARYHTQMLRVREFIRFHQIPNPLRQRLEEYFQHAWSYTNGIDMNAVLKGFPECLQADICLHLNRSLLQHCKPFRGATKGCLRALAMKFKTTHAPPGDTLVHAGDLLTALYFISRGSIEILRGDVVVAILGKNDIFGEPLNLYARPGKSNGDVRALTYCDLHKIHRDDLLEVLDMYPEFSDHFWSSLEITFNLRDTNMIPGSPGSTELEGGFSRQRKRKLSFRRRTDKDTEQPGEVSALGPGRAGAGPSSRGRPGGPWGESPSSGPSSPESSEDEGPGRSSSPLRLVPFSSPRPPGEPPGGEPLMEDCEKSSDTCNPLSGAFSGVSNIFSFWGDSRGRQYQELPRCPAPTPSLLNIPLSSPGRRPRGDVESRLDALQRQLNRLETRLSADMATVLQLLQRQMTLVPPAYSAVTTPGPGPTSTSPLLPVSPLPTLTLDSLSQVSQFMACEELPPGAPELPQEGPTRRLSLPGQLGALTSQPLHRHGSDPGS

Regarding `CC(C)Oc1ccc(CNC(=O)N(Cc2ccc(F)cc2F)C2CCN(C)CC2)cc1` [Example 5, 1-[(2,4-difluorophenyl)methyl]-1-(1-methylpiperidin-4-yl)-3-{[4-(propan-2-yloxy)phenyl]methyl}urea], the Ki in assay [1] was 1 nM. Moreover, the results for the half-maximal inhibitory concentration (IC50) in assay [2] and in assay [3] were above 10000 nM and 1800 nM, respectively.

`CC(C)COc1ccc(CNC(=O)N(Cc2ccc(F)cc2F)C2CCN(C)CC2)cc1` [Example 3, 1-[(2,4-difluorophenyl)methyl]-1-(1-methylpiperidin-4-yl)-3-{[4-(2-methylpropoxy)phenyl]methyl}urea]: the Ki in assay [1] is 1.26 nM. Also, the IC50 (in general, the concentration that gives 50% inhibition) amounted to 4200 nM in assay [2] and 500 nM in assay [3].

For `CN1CCC(N(Cc2ccc(F)cc2F)C(=O)NCc2ccc(OC3CC3)cc2)CC1` [Example 17, 3-[(4-cyclopropoxyphenyl)methyl]-1-[(2,4-difluorophenyl)methyl]-1-(1-methylpiperidin-4-yl)urea], in assay [1], the Ki was 0.398 nM. The results for the IC50 in assay [2] and in assay [3] were above 10000 nM and 1800 nM, respectively.
